# Assays:
# astrocytes [1] = test: MCB (reduced GSH) fluorescence of cortical astrocytes after RB-induced clot/ischemia; assay type: in vivo, mouse; details: 340 minutes after the initial clot; tail vein injection with RB
# Experimental: In another series of experiments, a transgenic mouse expressing green fluorescent protein (GFP) in astrocytes was prepared for imaging. In this mouse, the cortical cells were labeled with monochlorobimane (MCB), a fluorescent indicator of reduced GSH. After obtaining an image of astrocytes (GFP) and MCB fluorescence, the mouse was tail vein injected with Rose Bengal (RB), FITC-dextran and the P2Y-R agonist 2-MeSADP. A clot was induced with 543 nm irradiation in a region of the brain. Breakdown of the blood brain barrier in the region near this clot permitted secretion of 2-MeSADP in the nearby astrocytes. MCB fluorescence was maintained for over an hour in all of the cells in the field of view. […] The persistence of GSH in this area indicates an enhanced region of protection against oxidative stress caused by ischemia. Lineplots of MCB fluorescence of the astrocytes is depicted in FIG. 7. Cells a1-a3 are within the protected zone and cells a4-a6 are outside this area.
# astrocytes [2] = test: Rose Bengal induced blood clot, Fluo4 Ca2+ imaging of astrocytes in live mouse; assay type: in vivo; details: 2-MeSADP co-injected with Rose Bengal in tail vein; blood brain barrier breakdown at clot
# Experimental: Our working hypothesis states that P2Y-R activation in astrocytes leads to intracellular Ca^2+ release. […] In this experiment, the Ca^2+ indicator Fluo4-AM was loaded into astrocytes (90 minutes, 100 μM). Rose Bengal (RB) and the P2Y-R specific agonist 2-MeSADP were then co-injected in the tail vein of a live mouse. RB was illuminated with green light (543 nm), inducing reactive singlet oxygen and blood clots. A blood vessel was free flowing at 180 minutes, then clotted around 220 minutes after RB injection. […] More distal astrocytes a4 and a5 were not activated.
# astrocytes [3] = test: Fura-2 two-photon imaging of intracellular Ca2+ response; assay type: cell-based, mouse
# Experimental: Ca^2+ activity was imaged as previously described (Camacho and Lechleiter, 1995). In brief, cultured astrocytes were incubated with the fura-2 am (Molecular Probes, #F-1221) 30 min prior to the experiment. Images were acquired with two-photon excitation (800 nm) at the rate of 1.5 images/ sec. […] Images were analyzed with Image J and ANALYZE® software (the Mayo Foundation, Rochester, MN). The D-enantiomer of the 1P3-BM ester was synthesized by Stuart Conway in the Cambridge University Chemical Laboratory by using a modification of the protocol of Tsien and co-workers (Li et al., 1997).
# The primary response of glial cells to extracellular ATP is an increase in intracellular Ca^2+. To investigate whether the protective effect of ATP could be initiated by a Ca^2+ response, we loaded cultures of astrocytes with the Ca^2+ indicator dye Fura-2 AM (10 μM for 30 minutes). Fura-2 fluorescence was imaged with 2-photon microscopy using 800 nm excitation. At this wavelength, fluorescence is primarily due to the Ca^2+ free form of fura-2. […] When young astrocyte cultures were exposed to extracellular ATP (10 μM for 10 minutes), the peak intracellular Ca^2+ (−ΔF/F) was increased to 0.46±0.02 (n=25, pooled from 2 experiments). […] We tested whether the ATP-induced Ca^2+ response could be attributed to the metabotropic pathway, since IP3 mediated Ca^2+ release can stimulate mitochondrial energy production as well as sensitize mitochondria to apoptotic stimuli. Astrocytes cultured from old mice were pretreated with Xestospongin C (XeC, 25 μM for 30 minutes), which is a competitive inhibitor of IP3 binding to the IP3R. […] This is consistent with other reports showing that activation of the ionotropic P2X receptor activation also increases Ca^2+ in cultured astrocytes. To determine whether the metabotropic pathway was involved with the protective effect of extracellular ATP, we subsequently exposed the XeC/ATP treated astrocytes to oxidative stress. As described above, the perfusate contained t-BuOOH (100 μM) and TMRE (200 nM) to monitor ΔΨ. Under these experimental conditions, the average time until ΔΨ collapse was reduced to 5.48±0.22 (n=23, pooled from 2 experiments) in young astrocytes (FIG. 1C) and to 4.02±0.18 h (n=19, pooled from 2 experiments) in old astrocytes (FIG. 2C). […] We concluded that the protective effect of ATP on astrocytes was mediated by P2Y-receptors (P2Y-Rs).
# astrocytes [4] = test: Mitochondrial membrane potential ΔΨ estimated as log(Fmito/Fcyto) with TMRE; assay type: cell-based, mouse; details: treating astrocytes for 10 minutes
# Experimental: Mitochondrial membrane potentials (ΔΨs) was measured as previously described using the potential sensitive dye tetra-methyl rhodamine ethyl ester (TMRE, Molecular Probes, #T-669) (Lin and Lechleiter, 2002). Images were acquired with a 60× oil 1.4 NA objective on a Nikon PCM2000 confocal microscope custom adapted for two-photon imaging. A Ti-sapphire Coherent Mira 900 Laser pumped with a 5W Verdi laser (Coherent Inc., Santa Clara, Calif.) was used to excite TMRE at 800 nm A neutral-density filter wheel was used to attenuate the laser intensity so that no detectable photobleaching of TMRE was observed.
# We confirmed this by directly measuring the effect of ATP, ATP plus XeC and IP3-BM treatments on ΔΨ. Cultured cells were labeled with TMRE (200 nM) and imaged with a two-photon microscope as described above. ΔΨ was estimated as the log (Fmito/Fcyto) where Fmito is the peak fluorescent intensity observed in single mitochondria (Farkas et al., 1989; Lin et al., 2005). The mean values of individual mitochondria from a single cell were used for the mitochondrial potential estimate. Fcyto represents the lowest value of TMRE fluorescence observed within the boundaries of the same cell. […] FIG. 5E depicts a histogram plot showing average mitochondrial membrane potentials before and after treatment. The mean resting ΔΨs for untreated (Buffer), ATP-treated, ATP plus XeC-treated and IP3-BM-treated were 1.84+0.01 (n=78 mitochondria, pooled from 2 experiments), 1.84+0.01 (n=85 mitochondria), 1.85+0.01 (n=80 mitochondria) and 1.86+0.01 (n=48 mitochondria), respectively. Astrocyte cultures were then exposed to their respective treatments and the same fields of mitochondria were imaged 10 minutes later.
SMILES,MCB fluorescence (GSH) of astrocytes near the initial clot zone (astrocytes [1]),activation (Ca2+) of astrocytes near the RB-induced clot (astrocytes [2]),"peak Ca2+ amplitude (−ΔF/F) (astrocytes [3]; old astrocytes, ATP 10 μM)","peak intracellular Ca2+ (−ΔF/F) (astrocytes [3]; young astrocytes, ATP 10 μM for 10 minutes)",ΔΨ (log Fmito/Fcyto) after treatment (astrocytes [4])
CSc1nc(N)c2ncn([C@@H]3O[C@H](COP(=O)(O)OP(=O)(O)O)[C@@H](O)[C@H]3O)c2n1 [2-MeSADP],essentially maintained,activate nearby astrocytes,–,–,–
Nc1ncnc2c1ncn2[C@@H]1O[C@H](COP(=O)(O)OP(=O)(O)OP(=O)(O)O)[C@@H](O)[C@H]1O [ATP],–,–,0.46±0.04,0.46±0.02,1.98±0.01

# Source: US8618074B2, “GPCR enhanced neuroprotection to treat brain injury” (Board of Regents of the University of Texas System, priority 2007, dated 2013)
